Experimental findings from publication PMC7822874, “Chemoprotective antimalarials identified through quantitative high-throughput screening of Plasmodium blood and liver stage parasites” (Scientific Reports, 2021) are described below.

The experiment concerns Plasmodium falciparum Dd2 asexual blood stage parasites. Description: microbe, parasite or virus in culture. The arrangement: species or system Plasmodium falciparum Dd2 in human erythrocytes; single determination (one 11-point concentration-response curve). As to conditions: Plasmodium falciparum, DD2, Erythrocyte, 72 h; read-out: AC50.
Turning to `COCC1CN(C)CC12CCN([S+](=O)([O-])c1ccc(F)c(Cl)c1)CC2` (stereo not drawn) [NCGC00461939-01], the AC50 is 13.3 µM.

With `COc1cccc(Nc2ccc3c(n2)C(C)(C(=O)NC2CCC2)CN(C)C3)c1` (stereo not drawn) [NCGC00414508-01], the AC50 was determined as 15.3 µM.

Consider `O=C(C[C@@H]1CCNC[C@@H]1Cc1cc(CSc2ccccc2)on1)N1CCN(c2ccccc2)CC1` [NCGC00400854-01], for which the AC50 turned out to be 8.41 µM.

Turning to `CCC1=C(C(=O)OC)C(c2cccc(F)c2)N2C(CC(=O)NCCc3cccs3)=CSC2=N1` (stereo not drawn) [NCGC00473313-01], the AC50 stood at 9.44 µM.

Regarding `CCc1ccc(NC(=O)CSc2nc3[nH]nc(C)c3c(=N)n2-c2ccc(C)cc2)cc1` [NCGC00140694-01], the AC50 came to 6.68 µM.

As for `FC(F)(F)CN1C2CCC1CN(c1nnc(Cl)c3ccccc13)C2` [NCGC00375660-01], the AC50 is 2.11 µM.

Turning to `Cc1ccccc1CN1C[C@@H]2C[C@@H](c3c[nH]nc3-c3ccccc3)N3CCC[C@@]23C1=O` [MLS000735381-01], the AC50 amounted to 15 µM.

Take `COc1ccc(Nc2cc(C)c3cc(NC(=O)c4cc(OC)cc(OC)c4)ccc3n2)cc1` [NCGC00124306-01]: the AC50 stood at 0.75 µM.

On to `CN1CC2(CCCN(CC3CC3)C2)c2cc(C(=O)NCCOc3ccccc3)ccc21` (stereo not drawn) [NCGC00419362-01], for which the AC50 was found to be 17.2 µM.

For `Cc1cc(C)c(CN2C(=O)c3ccccc3[S+](=O)([O-])c3ccc(C(=O)OCC4CCCO4)cc32)c(C)c1` (stereo not drawn) [NCGC00127808-01], the concentration at half-maximal activity (AC50) is 6.68 µM.

Take `COc1cccc(CN2CCc3c(cc(C(=O)NCc4ccccn4)n3C)C2)c1` [NCGC00430584-01]: the AC50 is 15 µM.

Regarding `COc1cc(-c2nc(-c3c(C)noc3C)cc3c2cc(C)n3CCN(C)C)ccn1` [NCGC00417201-01], the AC50 is 17.2 µM.

With `CCO[C@H]1OC(C(=O)N2CCN(Cc3ccc4c(c3)OCO4)CC2)=C[C@@H](c2cn(C(C)=O)c3ccccc23)[C@@H]1CCCO` [MLS000834466-01], the AC50 is 8.41 µM.

`CCc1cccc(NC(c2nnc(-c3ccccc3)o2)c2ccc(F)cc2Cl)c1` (stereo not drawn) [NCGC00129460-01]: the AC50 turned out to be 6.68 µM.

In the case of `Oc1ccc(Br)cc1CN1CCN(c2ccccc2)CC1` [MLS000106609-01], the AC50 was 2.11 µM.

Regarding `COc1cc(C2CC(=O)Nc3cc4c(cc32)OCCO4)cc(Br)c1OC` (stereo not drawn) [NCGC00107055-01], the AC50 was determined as 5.31 µM.

In the case of `Cc1oc2ccc(O)c(CN(C)Cc3ccccc3)c2c1C(=O)Nc1cccc(C(F)(F)F)c1` [NCGC00115691-01], the concentration at half-maximal activity (AC50) came out at 2.11 µM.

Take `CC(C)C[C@@H](NC(=O)[C@@H](O)[C@H](N)Cc1ccccc1)C(=O)O` [NCGC00093685-01]: the half-maximal activity concentration (AC50) was 2.99 µM.

For `O=C(NCC1CCCCC1)c1cc2ccccc2cc1O` [MLS001141978-01], the AC50 is 9.44 µM.

For the compound `Cc1ccccc1NC(=O)c1c(C)oc2ccc(O)c(CN(C)Cc3ccccc3)c12` [NCGC00115709-01], the AC50 came out at 2.37 µM.

For `COc1ccc(-c2cc(C(=O)NCc3c(C)cc(C)[nH]c3=O)c3c(c2)N(C)CCO3)cn1` [NCGC00417013-01], the concentration at half-maximal activity (AC50) was found to be 19.3 µM.

Regarding `N=c1c2c3c(sc2ncn1Nc1ccccc1)CCC3` [MLS000858994-01], the AC50 turned out to be 3.35 µM.

As to `COC(=O)c1cc(C(=O)c2ccc(Cl)cc2Cl)cn1C` [MLS000546235-01], the AC50 came out at 13.3 µM.

`COc1ccc(OC)c(CN2CC(Oc3ccccc3C(=O)NCc3ccccc3)C2)c1` [NCGC00458087-01]: the AC50 came to 13.3 µM.

Turning to `COc1ccc2cc1Nc1ccc(cc1)C[C@H](NC(=O)c1ccc(Oc3ccccc3)cc1)C(=O)N(C)[C@@H](C(=O)Nc1ccccc1)C2` [NCGC00410310-01], the AC50 turned out to be 2.11 µM.

With `CCOC(=O)c1sc(NC(=O)C(C)Sc2nc(-c3ccccc3)cc(C(F)(F)F)n2)c(C(=O)OC)c1C` (stereo not drawn) [NCGC00101272-01], the half-maximal activity concentration (AC50) is 2.37 µM.

For `COc1cc2nc(NCc3ccccc3)n3nc(-c4ccccc4)nc3c2cc1OC` [NCGC00112829-01], the AC50 was found to be 0.422 µM.

With `OC(CNC1CCCc2ccccc21)COc1c(Cl)cccc1Cl` (stereo not drawn) [MLS000334339-01], the AC50 was found to be 1.68 µM.

With `CC(C)C(=O)NCC1CN(Cc2ccccc2)C(=O)c2c(ccnc2-c2ccc(OCC(=O)O)cc2)O1` (stereo not drawn) [NCGC00420601-01], the AC50 is 2.11 µM.

Turning to `COc1cc(F)ccc1CNCc1cccnc1N1CCOCC1` [NCGC00425822-01], the concentration at half-maximal activity (AC50) is 10.6 µM.

As for `CC(=O)Nc1ccc(CN2CC(N(C)c3ccccc3C)C2)cc1` [NCGC00476647-01], the AC50 is 12.2 µM.

Turning to `COc1cc(O)c(C(CCN2CCCC(C)C2)c2ccc3c(c2)OCO3)c(OC)c1` (stereo not drawn) [MLS000879506-01], the concentration at half-maximal activity (AC50) worked out at 0.531 µM.

In the case of `COc1cccc(Nc2ccc3c(n2)C(C)(C(=O)NCC2CC2)CN(C)C3)c1` (stereo not drawn) [NCGC00414531-01], the AC50 is 12.2 µM.

Regarding `CCCCn1cc([S+](=O)([O-])c2ccc(Cl)cc2)c(=O)c2cc(F)c(N3CCCCC3)cc21` [NCGC00123723-01], the AC50 was determined as 15 µM.

Regarding `CCCn1c(=N)c(C(=O)NCc2ccc3c(c2)OCO3)cc2c(=O)n3cccc(C)c3nc21` [MLS001305712-01], the AC50 is 10.6 µM.

With `O=C(NCCc1cccnc1)c1ccc(-c2nnc3ccc(NC(=O)C4CCC4)cn23)cc1` [NCGC00429899-01], the concentration at half-maximal activity (AC50) was determined as 6.68 µM.

With `CCCC1=[N+](CC(=O)c2ccccc2)CCn2c(C)ccc21` [MLS000551171-01], the AC50 was determined as 15 µM.

`CCN1CCN(C(=O)c2ccc(-c3nnc4ccc(NC(=O)C5CC5)cn34)cc2)CC1` [NCGC00429842-01]: the concentration at half-maximal activity (AC50) amounted to 6.68 µM.

`CC(=O)C1=C(c2ccc(Br)cc2)N(C(C)=O)n2c(nnc2C2CCCCC2)S1` [NCGC00137196-01]: the AC50 came to 2.99 µM.

On to `CCNc1nc(NCc2ccccc2)nc(Oc2ccc(=O)[nH]n2)n1` [MLS000097254-01], for which the AC50 is 2.11 µM.

For `COc1ccc(CC(=O)NCc2cc(C)cc3c(C)c(C)[nH]c23)c(OC)c1` [NCGC00431513-01], the AC50 came out at 8.41 µM.

Turning to `COc1ccccc1CN1CCC(CNC(=O)c2cnn(-c3ccc(Cl)cc3)c2C2CCN(C(=O)OC(C)(C)C)CC2)CC1` [NCGC00126796-01], the AC50 is 2.66 µM.

As to `O=S(=O)(c1ccc(F)cc1)N1CCN(C(S)=NC2CC2)CC1` [MLS002161026-01], the half-maximal activity concentration (AC50) is 3.35 µM.

With `CCOC(=O)C1=C(C)NC(=O)CC1c1cc(OC)c(OC)cc1Br` (stereo not drawn) [MLS000723492-01], the AC50 stood at 5.31 µM.

On to `Cc1cc(Nc2ccc(C)c(C)c2)n2nc(C)nc2n1` [MLS000116616-01], for which the AC50 was determined as 4.73 µM.

With `O=C(NC1CC1)c1ccc(CSCc2cccc(F)c2)o1` [MLS000120194-01], the AC50 came to 8.41 µM.

In the case of `COCCNC(=O)CSc1nc(-c2cc(OC)c(OC)c(OC)c2)[nH]c1-c1ccc(Cl)cc1` [NCGC00107926-01], the AC50 was 8.41 µM.

With `c1ccc2c(c1)CNC1(CCN(Cc3cccc4ccccc34)CC1)CO2` [NCGC00477546-01], the AC50 amounted to 7.5 µM.

Turning to `COc1cc(O)c(C(CCN2CCCCC2)c2cc(OC)c(OC)c(OC)c2)c(OC)c1` (stereo not drawn) [MLS000879476-01], the AC50 came out at 2.66 µM.

For `Cc1ccc(-c2cc(C(F)F)n3ncc(C(=O)N4CCCCC4c4cccnc4)c3n2)cc1` (stereo not drawn) [MLS000665275-01], the AC50 was found to be 2.37 µM.

As to `CC1CCN(c2nc3c([S+](=O)([O-])c4ccccc4)nnn3c3ccc(Cl)cc23)CC1` [NCGC00112222-01], the AC50 worked out at 2.66 µM.

Regarding `CCOc1nc(N=C(N)N)nc2c(C)cccc12` [MLS000570610-01], the AC50 worked out at 10.6 µM.

Turning to `Cn1nc(C(F)(F)F)c(-c2ccc(F)cc2)c1NC(=O)Nc1ccc(F)cc1` [MLS000830769-01], the AC50 came to 1.88 µM.

`CCOC(=O)C1=Nc2ccccc2C1=[N+]=[N-]` [MLS000079382-01]: the AC50 is 4.22 µM.

As for `Oc1cc(Nc2ccccc2)cc2cccnc12` [NCGC00183789-01], the AC50 turned out to be 6.68 µM.

With `Cc1ccc(-n2cc(CNCCc3nc(C)c[nH]3)c(-c3ccc(F)cc3)n2)cc1` [MLS000735387-01], the AC50 came to 15 µM.

In the case of `CCOc1cc(C(=O)N2CCc3c([nH]c4ccccc34)C2c2ccccc2)cc(OCC)c1OCC` (stereo not drawn) [NCGC00134525-01], the AC50 came out at 7.5 µM.

For the compound `COC1=CC(=O)C(=C(C)N/N=C(\S)NCCc2ccccc2)C=C1` [MLS001170945-01], the concentration at half-maximal activity (AC50) amounted to 3.35 µM.

Turning to `O=C(c1nnc(CN2CCC(F)(F)CC2)n1-c1cccnc1)N1CCC[C@@H]1C(c1ccccc1)c1ccccc1` [NCGC00415758-01], the AC50 was 15 µM.

For the compound `Cc1ccc(N(C)C2=NC(=O)CS2)cc1Cl` [MLS001164579-01], the half-maximal activity concentration (AC50) stood at 9.44 µM.

Consider `CC(C)OCCCNc1sc([S+](=O)([O-])c2ccccc2)nc1[S+](=O)([O-])c1ccc(Cl)cc1` [NCGC00116822-01], for which the AC50 came out at 0.266 µM.

Turning to `CCN(CC)c1cc(C)c2cc(NC(=O)/C=C/c3cc(OC)c(OC)c(OC)c3)ccc2n1` [NCGC00104274-01], the concentration at half-maximal activity (AC50) came to 4.73 µM.

Regarding `COc1ccc(OC)c(S(=O)(=O)Nc2ccc(O)c3ccccc23)c1` [MLS001045548-01], the AC50 stood at 8.41 µM.

Regarding `COC(=O)C1=C(c2ccc(-c3ccccc3)c(F)c2)C[C@@H]2CC[C@H]1N2C(=O)NCc1cccc2ccccc12` [MLS002302696-01], the AC50 is 10.6 µM.

As to `COc1cc2c(C(=O)N3CCN(c4cc(Cl)ccc4C)CC3)cn(CC(C)C)c(=O)c2cc1OC` [NCGC00103751-01], the concentration at half-maximal activity (AC50) came out at 15 µM.

As to `COc1cc(NC(=O)CSc2nc(-c3ccccc3)no2)cc(OC)c1` [NCGC00127876-01], the half-maximal activity concentration (AC50) was 2.37 µM.

Turning to `CCCCCCNC(=O)Cc1csc2nc(C)c(-c3cc(C)n(-c4cccc(C)c4)n3)c(=O)n12` [NCGC00473470-01], the AC50 came out at 15 µM.

Take `CC(=O)N1c2c(cc(Br)cc2[S+](=O)([O-])N2CCN(c3cc(C)ccc3C)CC2)CC1C` (stereo not drawn) [NCGC00104358-01]: the AC50 came to 11.9 µM.

As for `COc1ccc2nc(N(Cc3cccnc3)C(=O)CCc3ccccc3)sc2c1` [NCGC00136611-01], the concentration at half-maximal activity (AC50) was 6.68 µM.

As to `COc1ccc(NS(=O)(=O)c2cc(NC(=O)/C=C/c3cc(OC)c(OC)c(OC)c3)ccc2N2CCCCC2)cc1` [MLS000394995-01], the AC50 came out at 6.68 µM.

As for `COc1ccccc1CN1CCn2c(nn(-c3ccc([N+](=O)[O-])cc3)c2=O)C1` [NCGC00479607-01], the AC50 came out at 5.96 µM.

On to `COc1ccccc1NC(=O)CN1CCN(C2c3ccccc3-c3ccccc32)CC1` [MLS000047428-01], for which the AC50 came out at 15 µM.
